Target: T1, human muscarinic acetylcholine M1 receptor (Homo sapiens, UniProt P11229)
T1 construct: expressed in transfected cells; host or cells: CHO-K1
T1 sequence (P11229 1-460): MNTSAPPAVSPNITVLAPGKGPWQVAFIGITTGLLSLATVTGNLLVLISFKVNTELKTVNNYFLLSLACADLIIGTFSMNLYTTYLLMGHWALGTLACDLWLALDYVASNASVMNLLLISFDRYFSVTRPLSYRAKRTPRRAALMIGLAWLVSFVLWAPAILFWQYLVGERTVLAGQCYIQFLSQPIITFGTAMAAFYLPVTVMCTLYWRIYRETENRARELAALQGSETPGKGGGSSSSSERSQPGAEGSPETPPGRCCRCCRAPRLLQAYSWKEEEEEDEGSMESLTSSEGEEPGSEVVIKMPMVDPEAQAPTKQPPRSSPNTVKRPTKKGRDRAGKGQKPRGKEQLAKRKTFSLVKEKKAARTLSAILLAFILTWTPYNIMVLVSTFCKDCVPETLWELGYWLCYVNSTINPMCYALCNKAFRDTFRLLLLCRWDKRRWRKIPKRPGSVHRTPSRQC
Experiment: M1 PAM Assay (IP-One HTRF, IP1 accumulation in M1-CHO cells)
Assay type: cell-based
Conditions: CHO-K1 cells stably transfected with human M1 receptor; compounds added with EC20 of acetylcholine (25 nM), 30 min; intracellular IP1 by IP-One HTRF; read-out: M1 PAM EC50
Description: Then diluted compounds (0.6% DMSO final concentration) are added together with EC20 of acetylcholine and incubated with the cells for 30 min at 37° C., 5% CO2.
CHO-K1 cells stably transfected with human muscarinic acetylcholine M1 receptor are cultured in Ham's F12 medium containing 10% heat inactivated fetal calf serum, 2 mM L-glutamine and Penicillin-Streptomycin grown in a humidified atmosphere at 5% CO2/95% air at 37° C.

Row | Substance | EC50 [nM]
1 | (3-chloro-4-ethyl-2-methyl-7H-pyrrolo[3′,4′:3,4]pyrazolo[1,5-a]pyrimidin-8(9H)-yl)(2-((4-hydroxytetrahydrofuran-3-yl)oxy)phenyl)methanone or (3-chloro-2-ethyl-4-methyl-7H-pyrrolo[3′,4′:3,4]pyrazolo[1,5-a]pyrimidin-8(9H)-yl)(2-((4-hydroxytetrahydrofuran-3-yl)oxy)phenyl)methanone [Example 22] | 1000 to 3000
2 | (anti)-(6-Chloro-5-ethyl-7-methyl-1H,3H-2,4,7a,8-tetraaza-cyclopenta[a]inden-2-yl)-[2-(4-hydroxy-pyrrolidin-3-yl oxy)-phenyl]-methanone or (anti)-(6-Chloro-5-methyl-7-ethyl-1H,3H-2,4,7a,8-tetraaza-cyclopenta[a]inden-2-yl)-[2-(4-hydroxy-pyrrolidin-3-yl oxy)-phenyl]-methanone [Example 10] | 200 to 1000
3 | (syn)-(6-Chloro-5,7-dimethyl-1H,3H-2,4,7a,8-tetraaza-cyclopenta[a]inden-2-yl)-[4-fluoro-2-(4-fluoro-cyclohexyloxy)-phenyl]-methanone or (anti)-(6-Chloro-5,7-dimethyl-1H,3H-2,4,7a,8-tetraaza-cyclopenta[a]inden-2-yl)-[4-fluoro-2-(4-fluoro-cyclohexyloxy)-phenyl]-methanone [Example 54] | 1000 to 3000

Source: patent US9505769B2 (ASCENEURON SA, priority 2013, dated 2016)
